Assay results from ChEMBL document CHEMBL1158360, “Large ring 1,3-bridged 2-azetidinones: experimental and theoretical studies” (Eur J Med Chem, 2009).
Activity calls are given as the source filed them. The calls are words filed in the database; no cut-off is given here.

Legend:
[1] = molecular target: T1, Penicillin-binding protein 2x (Streptococcus pneumoniae serotype 4 (strain ATCC BAA-334 / TIGR4)) (UniProt P14677); test: Residual activity of Streptococcus pneumoniae 5204 PBP2x at 100 uM after 16 hrs
T1 sequence (whole entry): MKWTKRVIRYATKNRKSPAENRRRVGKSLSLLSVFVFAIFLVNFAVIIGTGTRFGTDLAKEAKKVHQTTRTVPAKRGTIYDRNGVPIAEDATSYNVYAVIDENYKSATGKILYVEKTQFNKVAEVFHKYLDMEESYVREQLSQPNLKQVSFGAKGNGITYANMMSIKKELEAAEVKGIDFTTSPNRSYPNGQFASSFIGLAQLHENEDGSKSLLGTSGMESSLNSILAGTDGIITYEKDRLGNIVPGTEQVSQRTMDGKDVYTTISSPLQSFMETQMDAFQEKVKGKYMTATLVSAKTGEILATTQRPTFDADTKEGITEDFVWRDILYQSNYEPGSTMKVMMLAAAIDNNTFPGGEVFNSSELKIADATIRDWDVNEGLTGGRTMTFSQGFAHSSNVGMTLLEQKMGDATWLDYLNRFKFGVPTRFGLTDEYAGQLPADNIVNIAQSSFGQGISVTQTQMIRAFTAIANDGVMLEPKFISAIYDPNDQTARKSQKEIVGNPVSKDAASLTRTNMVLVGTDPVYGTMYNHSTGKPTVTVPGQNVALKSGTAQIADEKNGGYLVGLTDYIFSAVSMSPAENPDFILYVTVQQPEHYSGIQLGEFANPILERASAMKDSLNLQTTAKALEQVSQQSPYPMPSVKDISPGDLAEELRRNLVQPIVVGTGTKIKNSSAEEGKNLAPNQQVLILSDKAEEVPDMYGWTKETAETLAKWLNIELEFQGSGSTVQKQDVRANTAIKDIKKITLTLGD

Enterococcus faecium = test: Residual activity of Enterococcus faecium PBP5fm at 100 uM after 16 hrs
[2] = molecular target: T2, MecA (Staphylococcus aureus) (UniProt Q7DHH4); test: Inhibition of methicillin-resistant Staphylococcus aureus ATCC […] PBP2a assessed as residual activity at 100 uM after 16 hrs; settings: values are per cent of control
T2 sequence (whole entry): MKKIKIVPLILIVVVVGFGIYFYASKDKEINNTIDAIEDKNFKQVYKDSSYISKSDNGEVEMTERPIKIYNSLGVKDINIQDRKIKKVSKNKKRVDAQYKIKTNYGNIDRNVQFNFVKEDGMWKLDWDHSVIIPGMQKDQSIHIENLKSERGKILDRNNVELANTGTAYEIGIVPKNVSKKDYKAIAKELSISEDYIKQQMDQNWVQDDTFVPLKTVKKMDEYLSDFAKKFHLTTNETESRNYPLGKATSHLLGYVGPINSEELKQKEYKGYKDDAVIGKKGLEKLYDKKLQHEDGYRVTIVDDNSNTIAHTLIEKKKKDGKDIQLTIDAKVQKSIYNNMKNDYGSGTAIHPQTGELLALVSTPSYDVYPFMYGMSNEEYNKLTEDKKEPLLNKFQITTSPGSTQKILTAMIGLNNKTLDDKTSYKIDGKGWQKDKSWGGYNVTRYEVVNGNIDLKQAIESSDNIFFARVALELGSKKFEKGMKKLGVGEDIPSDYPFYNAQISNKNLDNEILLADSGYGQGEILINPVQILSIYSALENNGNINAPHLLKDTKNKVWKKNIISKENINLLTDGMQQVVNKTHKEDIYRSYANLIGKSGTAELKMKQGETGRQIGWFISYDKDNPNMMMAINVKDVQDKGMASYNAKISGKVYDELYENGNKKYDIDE

[3] = Inhibition of beta-lactamase TEM1 at 100 uM
[4] = molecular target: D-alanyl-D-alanine carboxypeptidase (Actinomadura sp. R39) (UniProt P39045); test: Residual activity of Actinomadura R39 DD-peptidase at 100 uM after 16 hrs
[5] = Chemical stability assessed as hydrolysis half life; assay type: physicochemical
[6] = molecular target: Chymotrypsin-like elastase family member 1 (Sus scrofa) (UniProt P00772); test: Inhibition of pig pancreatic elastase assessed as formation of p-nitroaniline at 100 uM
Sequence of Chymotrypsin-like elastase family member 1 (Sus scrofa) (P00772 whole entry): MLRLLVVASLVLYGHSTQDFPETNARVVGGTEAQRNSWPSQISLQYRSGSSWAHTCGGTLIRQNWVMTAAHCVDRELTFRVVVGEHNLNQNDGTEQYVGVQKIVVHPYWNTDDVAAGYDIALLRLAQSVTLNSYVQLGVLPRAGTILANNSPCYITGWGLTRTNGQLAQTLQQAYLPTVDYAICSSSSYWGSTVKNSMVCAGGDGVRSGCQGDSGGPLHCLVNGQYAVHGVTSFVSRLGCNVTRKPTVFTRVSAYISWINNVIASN

[7] = molecular target: Chymotrypsin-like elastase family member 1 (Sus scrofa) (UniProt P00772); test: Reversible inhibition of pig pancreatic elastase at 1 to 100 uM preincubated for 60 mins before addition of N-succinyl-L-alanyl-Lalanyl- L-alanyl-p-nitroanilide by incubation/dilution method
[8] = molecular target: Chymotrypsin-like elastase family member 1 (Sus scrofa) (UniProt P00772); test: Inhibition of pig pancreatic elastase assessed as formation of p-nitroaniline at 1 uM
[9] = molecular target: Chymotrypsin-like elastase family member 1 (Sus scrofa) (UniProt P00772); test: Reversible inhibition of pig pancreatic elastase at 1 to 100 uM preincubated for 20 mins before addition of N-succinyl-L-alanyl-Lalanyl- L-alanyl-p-nitroanilide by incubation/dilution method
[10] = molecular target: Chymotrypsin-like elastase family member 1 (Sus scrofa) (UniProt P00772); test: Reversible inhibition of pig pancreatic elastase at 1 to 100 uM preincubated for 40 mins before addition of N-succinyl-L-alanyl-Lalanyl- L-alanyl-p-nitroanilide by incubation/dilution method

SMILES | residual activity [1] | residual activity (Enterococcus faecium) | residual activity [2] | inhibition [3] | residual activity [4] | half-life [5] | inhibition [6] | inhibition [7] | inhibition [8] | inhibition [9] | inhibition [10]
CC1(C)S[C@@H]2[C@H](NC(=O)Cc3ccccc3)C(=O)N2[C@H]1C(=O)O | < 5% | 10% | 13% | – | – | – | – | – | – | – | –
CC(=O)O[C@@H]1[C@@H]2C(=O)N1C(=O)CC/C=C/CCC(=O)O[C@@H]2C | 116% | 104% | 86% | inactive | 96% | 360 min | inactive | – | – | – | –
C=CCCC(=O)O[C@H](C)[C@H]1C(=O)N(C(=O)CCC=C)[C@@H]1OC(C)=O | 93% | 84% | 66% | inactive | 14% | 960 min | – | Active | Active | Active | Active
CC(=O)O[C@@H]1[C@@H]2C(=O)N1C(=O)CCCCCCC(=O)O[C@@H]2C | 99% | 113% | 94% | inactive | 113% | 240 min | inactive | – | – | – | –
